Results reported in the supplement of paper PMC8612539.

Tests used:
Mannheimia haemolytica = assay: minimum inhibitory concentration (MIC)
Procedure: (§1)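 Broth microdilution MIC (Sensititre BOPO7F bovine plate, CLSI methods) of 19 antimicrobials against field isolates of P. multocida, M. haemolytica, H. somni (deep nasopharyngeal swabs) and E. coli, Enterococcus spp. (rectal swabs) from weaned dairy heifers. Incubation 16-24 h at 35 C. MIC is the lowest concentration preventing visible growth. Values with <= or > lie at the tested range limits. Trimethoprim-sulfamethoxazole is given as the trimethoprim component of a 1:19 mixture.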

Enterococcus spp. = assay: minimum inhibitory concentration (MIC)
Procedure: as §1

COc1cc(Cc2cnc(N)nc2N)cc(OC)c1OC.Cc1cc(NS(=O)(=O)c2ccc(N)cc2)no1 [trimethoprim-sulfamethoxazole]
minimum inhibitory concentration [µg/mL]
Conditions	Enterococcus spp.	Mannheimia haemolytica
isolate (source animal id): 2	≤ 2	–
isolate (source animal id): 3	–	≤ 2
isolate (source animal id): 8	–	≤ 2
isolate (source animal id): 13	–	≤ 2
isolate (source animal id): 18	–	≤ 2
isolate (source animal id): 21	–	≤ 2
isolate (source animal id): 25	–	≤ 2
isolate (source animal id): 27	–	≤ 2
isolate (source animal id): 28	–	≤ 2
isolate (source animal id): 30	–	≤ 2
isolate (source animal id): 31	–	≤ 2
isolate (source animal id): 32	–	≤ 2
isolate (source animal id): 34	–	≤ 2
isolate (source animal id): 35	> 2	–
isolate (source animal id): 36	–	≤ 2
isolate (source animal id): 37	–	≤ 2
isolate (source animal id): 40	–	≤ 2
isolate (source animal id): 41	–	≤ 2
isolate (source animal id): 42	≤ 2	–
isolate (source animal id): 43	–	≤ 2
isolate (source animal id): 44	> 2	–
isolate (source animal id): 46	–	≤ 2
isolate (source animal id): 49	–	≤ 2
isolate (source animal id): 50	–	≤ 2
isolate (source animal id): 51	–	≤ 2
isolate (source animal id): 52	–	≤ 2
isolate (source animal id): 53	–	≤ 2
isolate (source animal id): 55	–	≤ 2
isolate (source animal id): 56	–	≤ 2
isolate (source animal id): 57	–	≤ 2
isolate (source animal id): 60	–	> 2
isolate (source animal id): 61	–	≤ 2
isolate (source animal id): 64	–	≤ 2
isolate (source animal id): 65	–	≤ 2
isolate (source animal id): 66	–	> 2
isolate (source animal id): 67	–	≤ 2
isolate (source animal id): 68	–	≤ 2
isolate (source animal id): 70	–	≤ 2
isolate (source animal id): 72	–	≤ 2
isolate (source animal id): 74	–	≤ 2
isolate (source animal id): 76	–	≤ 2
isolate (source animal id): 79	≤ 2	–
isolate (source animal id): 80	–	≤ 2
isolate (source animal id): 82	–	≤ 2
isolate (source animal id): 83	–	≤ 2
isolate (source animal id): 84	–	≤ 2
isolate (source animal id): 85	–	≤ 2
isolate (source animal id): 86	–	≤ 2
isolate (source animal id): 87	–	> 2
isolate (source animal id): 88	≤ 2	–
isolate (source animal id): 91	≤ 2	–
isolate (source animal id): 92	≤ 2	–
isolate (source animal id): 100	–	> 2
isolate (source animal id): 103	–	≤ 2
isolate (source animal id): 107	–	≤ 2
isolate (source animal id): 108	–	≤ 2
isolate (source animal id): 111	≤ 2	–
isolate (source animal id): 112	–	≤ 2
isolate (source animal id): 113	–	≤ 2
isolate (source animal id): 121	–	≤ 2
isolate (source animal id): 122	> 2	≤ 2
isolate (source animal id): 123	≤ 2	≤ 2
isolate (source animal id): 126	–	≤ 2
isolate (source animal id): 133	≤ 2	≤ 2
isolate (source animal id): 135	–	≤ 2
isolate (source animal id): 138	–	≤ 2
isolate (source animal id): 141	–	≤ 2
isolate (source animal id): 142	–	≤ 2
isolate (source animal id): 145	–	≤ 2
isolate (source animal id): 149	–	≤ 2
isolate (source animal id): 151	–	≤ 2
isolate (source animal id): 152	–	≤ 2
isolate (source animal id): 154	–	≤ 2
isolate (source animal id): 158	> 2	–
isolate (source animal id): 159	–	≤ 2
isolate (source animal id): 162	–	≤ 2
isolate (source animal id): 168	≤ 2	–
isolate (source animal id): 169	≤ 2	–
isolate (source animal id): 170	–	≤ 2
isolate (source animal id): 171	≤ 2	≤ 2
isolate (source animal id): 172	–	≤ 2
isolate (source animal id): 173	–	≤ 2
isolate (source animal id): 175	≤ 2	–
isolate (source animal id): 177	≤ 2	–
isolate (source animal id): 179	–	≤ 2
isolate (source animal id): 180	–	≤ 2
isolate (source animal id): 181	≤ 2	–
isolate (source animal id): 182	≤ 2	–
isolate (source animal id): 183	≤ 2	≤ 2
isolate (source animal id): 186	–	≤ 2
isolate (source animal id): 187	≤ 2	≤ 2
isolate (source animal id): 188	–	≤ 2
isolate (source animal id): 190	≤ 2	≤ 2
isolate (source animal id): 191	–	≤ 2
isolate (source animal id): 192	–	≤ 2
isolate (source animal id): 194	≤ 2	–
isolate (source animal id): 195	≤ 2	–
isolate (source animal id): 197	≤ 2	–
isolate (source animal id): 201	–	≤ 2
isolate (source animal id): 202	–	≤ 2
isolate (source animal id): 209	–	≤ 2
isolate (source animal id): 211	≤ 2	≤ 2
isolate (source animal id): 214	> 2	–
isolate (source animal id): 220	–	≤ 2
isolate (source animal id): 221	–	≤ 2
isolate (source animal id): 222	≤ 2	–
isolate (source animal id): 223	≤ 2	≤ 2
isolate (source animal id): 228	≤ 2	–
isolate (source animal id): 230	≤ 2	–
isolate (source animal id): 233	–	≤ 2
isolate (source animal id): 235	≤ 2	–
isolate (source animal id): 236	≤ 2	–
isolate (source animal id): 237	–	≤ 2
isolate (source animal id): 239	≤ 2	–
isolate (source animal id): 241	≤ 2	≤ 2
isolate (source animal id): 244	≤ 2	–
isolate (source animal id): 246	≤ 2	–
isolate (source animal id): 247	≤ 2	–
isolate (source animal id): 250	≤ 2	–
isolate (source animal id): 252	> 2	≤ 2
isolate (source animal id): 253	–	≤ 2
isolate (source animal id): 259	–	≤ 2
isolate (source animal id): 260	–	≤ 2
isolate (source animal id): 262	–	≤ 2
isolate (source animal id): 268	≤ 2	–
isolate (source animal id): 282	≤ 2	≤ 2
isolate (source animal id): 285	> 2	–
isolate (source animal id): 287	–	≤ 2
isolate (source animal id): 288	–	≤ 2
isolate (source animal id): 289	≤ 2	–
isolate (source animal id): 290	≤ 2	–
isolate (source animal id): 291	–	≤ 2
isolate (source animal id): 293	–	≤ 2
isolate (source animal id): 296	≤ 2	–
isolate (source animal id): 298	≤ 2	≤ 2
isolate (source animal id): 299	–	≤ 2
isolate (source animal id): 300	–	≤ 2
isolate (source animal id): 301	≤ 2	–
isolate (source animal id): 302	–	≤ 2
isolate (source animal id): 304	–	≤ 2
isolate (source animal id): 306	–	≤ 2
isolate (source animal id): 308	–	≤ 2
isolate (source animal id): 309	–	≤ 2
isolate (source animal id): 310	> 2	–
isolate (source animal id): 313	–	≤ 2
isolate (source animal id): 318	–	≤ 2
isolate (source animal id): 320	≤ 2	≤ 2
isolate (source animal id): 321	–	≤ 2
isolate (source animal id): 323	–	≤ 2
isolate (source animal id): 324	–	≤ 2
isolate (source animal id): 326	–	≤ 2
isolate (source animal id): 328	–	≤ 2
isolate (source animal id): 329	–	≤ 2
isolate (source animal id): 331	≤ 2	–
isolate (source animal id): 333	≤ 2	≤ 2
isolate (source animal id): 335	–	≤ 2
isolate (source animal id): 338	–	≤ 2
isolate (source animal id): 341	> 2	–
